# “And” between values parts separate entries of the source, which are not always exact repeats. Equal values may be shown once. Read-outs that look alike come from different tables or passages of the source.
# Legend:
# [1] = system: Human Tumor Colony Forming Units; assay: In Vitro Human Tumor Colony Forming Units Test; conditions: for tumors that had ≧50% survival / tumors tested, total line: all tumor types
# SK-MES cells (lung) = assay: Apoptosis study (TdT assay) and cell growth; format: cell-based, human
# Experimental: Summary of test results: The extent of apoptosis is measured in human tumor cell lines after treatment for 1, 2, 3 and 4 days with carbendazim. At each of these time points, the cells are harvested and assayed using the terminal deoxynucleotidyl transferase (TdT) assays. Both microscopy and flow cytometry were used for the TdT assay.
# In MCF7, HT29, B16 and SK-MES cell lines, there was a concentration dependent effect on cell growth. […] After completion of the studies on the MCF7 and HT29 cell lines, it was evident that the 0.1 μg/ml concentration had little effect on either apoptosis or cell growth. Therefore subsequent assays were with 5 μg/ml instead of 0.1 μg/ml.
# The growth of SK-MES cells was slowed done by all concentrations of carbendazim past day 1.
# influenza [2] = assay: In vitro influenza model; format: cell-based
# [3] = format: in vivo
# Source text: Additional in vivo cancer studies are presented in a tabular form below. The data is presented in the following format—dose regimen in parenthesis, dosage in mg/kg: tumor growth suppression (tg supp.), toxic deaths/number of test subjects (deaths), % weight change (wt).
# Rhabdomysarcoma = Rhabdomysarcoma model, tumor weight; format: in vivo; conditions: 3000 (mg/kg) group, once weekly p.o.
# Source text: The dose response effect of carbendazim in mice infected with various cancer types was studied in standard screening tests.
# The results of these studies conducted to study the dosage response of carbendazim on various cancer types are summarized below. […] Efficacy of carbendazim has been shown in the following cancers:
# In the Rhabdomysarcoma model, a childhood cancer, at day 29 carbendazim at doses of 3000, 4000 and 5000 (mg/kg given once weekly, p.o.) is quite effective against this tumor with no toxicity in the 3000 (mg/kg) group. Topotecan (i.p., qd×5) is quite active against this model.
# influenza [4] = assay: In vivo model for influenza; parameters: species or system mice; conditions: mouse, in vivo
# Experimental: The positive control was amantadine (75 mg/kg) with 100% of the mice surviving for 21 days. 2-(Methoxycarbonylamino)benzimidazole was not active in the same test.
# lung = format: in vivo; conditions: A549-lung, 500 mg/kg
# Prostate cancer model = assay: Prostate cancer model, tumor weight; format: in vivo, mice; conditions: c1-c6 = day 22, 26, 29, 33, 36, 39
# Oral LD50 = conditions: mouse, in vivo, mice
# [5] = DU-145, 4000 mg/kg twice weekly
# [6] = DU-145, 5000 mg/kg twice weekly
# [7] = DU-145, 6000 mg/kg twice weekly
# [8] = HT29 (colon), 2000 mg/kg twice weekly
# [9] = HT29 (colon), 3000 mg/kg twice weekly
# [10] = HT29 (colon), 4000 mg/kg twice weekly
# [11] = HT29 (colon), 5000 mg/kg twice weekly
# [12] = HT29 (colon), 6000 mg/kg twice weekly
# [13] = MCF-7L (breast), 4000 mg/kg twice weekly
# [14] = MCF-7L (breast), 5000 mg/kg twice weekly
# [15] = MX1 xenograft, 4000 mg/kg twice weekly
# [16] = MX1 xenograft, 5000 mg/kg twice weekly
# [17] = MX1 xenograft, 6000 mg/kg twice weekly
# [18] = SK-MES, 4000 mg/kg twice weekly
# [19] = SK-MES, 5000 mg/kg twice weekly
# [20] = SK-MES, 6000 mg/kg twice weekly
smiles,measurement,setting,value
"COC(=O)Nc1nc2ccccc2[nH]1 [carbendazim, 2-methoxycarbonylamino-benzimidazole]",positive results / tumors tested,"[1]; 1 Hour Exposure, 0.5 μg/ml",0/1
same,positive results / tumors tested,"[1]; 1 Hour Exposure, 5.0 μg/ml",0/1
same,positive results / tumors tested,"[1]; 1 Hour Exposure, 50.0 μg/ml",0/1
same,tumors that had ≧50% survival / tumors tested,"[1]; Brain, 2nd '1 Hour Exposure' group, c4-c7 = 0.5, 5.0, 10, 50 μg/ml",0/2 and 2/2
same,tumors that had ≧50% survival / tumors tested,"[1]; Breast, 1 Hour Exposure, c1-c3 = 0.5, 5.0, 50 μg/ml",0/1
same,tumors that had ≧50% survival / tumors tested,"[1]; Breast, 2nd '1 Hour Exposure' group, c4-c7 = 0.5, 5.0, 10, 50 μg/ml",0/3 and 0/4 and 0/1 and 2/3
same,tumors that had ≧50% survival / tumors tested,"[1]; Cervix, 2nd '1 Hour Exposure' group, c4-c7 = 0.5, 5.0, 10, 50 μg/ml",0/1 and 1/1
same,tumors that had ≧50% survival / tumors tested,"[1]; Colon, 1 Hour Exposure, c1-c3 = 0.5, 5.0, 50 μg/ml",0/1
same,tumors that had ≧50% survival / tumors tested,"[1]; Colon, 2nd '1 Hour Exposure' group, c4-c7 = 0.5, 5.0, 10, 50 μg/ml",0/5 and 1/5 and 2/5
same,positive results / tumors tested,"[1]; Continuous Exposure, 0.5 μg/ml",0/14
same,positive results / tumors tested,"[1]; Continuous Exposure, 5.0 μg/ml",3/14
same,positive results / tumors tested,"[1]; Continuous Exposure, 50.0 μg/ml",5/14
same,tumors that had ≧50% survival / tumors tested,"[1]; Head & Neck, 1 Hour Exposure, c1-c3 = 0.5, 5.0, 50 μg/ml",0/1
same,tumors that had ≧50% survival / tumors tested,"[1]; Head & Neck, 2nd '1 Hour Exposure' group, c4-c7 = 0.5, 5.0, 10, 50 μg/ml",0/1 and 1/1
same,tumors that had ≧50% survival / tumors tested,"[1]; Kidney, 1 Hour Exposure, c1-c3 = 0.5, 5.0, 50 μg/ml",0/1
same,tumors that had ≧50% survival / tumors tested,"[1]; Kidney, 2nd '1 Hour Exposure' group, c4-c7 = 0.5, 5.0, 10, 50 μg/ml",0/2 and 1/2
same,tumors that had ≧50% survival / tumors tested,"[1]; Lung, non-small cell, 1 Hour Exposure, c1-c3 = 0.5, 5.0, 50 μg/ml",0/1
same,tumors that had ≧50% survival / tumors tested,"[1]; Lung, non-small cell, 2nd '1 Hour Exposure' group, c4-c7 = 0.5, 5.0, 10, 50 μg/ml",0/6 and 2/6 and 0/1 and 2/5
same,tumors that had ≧50% survival / tumors tested,"[1]; Melanoma, 1 Hour Exposure, c1-c3 = 0.5, 5.0, 50 μg/ml",0/2 and 1/2
same,tumors that had ≧50% survival / tumors tested,"[1]; Melanoma, 2nd '1 Hour Exposure' group, c4-c7 = 0.5, 5.0, 10, 50 μg/ml",0/3 and 1/3 and 2/3
same,tumors that had ≧50% survival / tumors tested,"[1]; Mesothelioma, 2nd '1 Hour Exposure' group, c4-c7 = 0.5, 5.0, 10, 50 μg/ml",0/1
same,tumors that had ≧50% survival / tumors tested,"[1]; Ovary, 1 Hour Exposure, c1-c3 = 0.5, 5.0, 50 μg/ml",0/3
same,tumors that had ≧50% survival / tumors tested,"[1]; Ovary, 2nd '1 Hour Exposure' group, c4-c7 = 0.5, 5.0, 10, 50 μg/ml",0/1 and 2/13 and 10/13
same,tumors that had ≧50% survival / tumors tested,"[1]; Sarcoma, 1 Hour Exposure, c1-c3 = 0.5, 5.0, 50 μg/ml",0/1 and 1/1
same,tumors that had ≧50% survival / tumors tested,"[1]; Sarcoma, 2nd '1 Hour Exposure' group, c4-c7 = 0.5, 5.0, 10, 50 μg/ml",0/1 and 1/1
same,tumors that had ≧50% survival / tumors tested,"[1]; Stomach, 2nd '1 Hour Exposure' group, c4-c7 = 0.5, 5.0, 10, 50 μg/ml",0/1 and 1/1
same,tumors that had ≧50% survival / tumors tested,"[1]; Unknown Primary, 2nd '1 Hour Exposure' group, c4-c7 = 0.5, 5.0, 10, 50 μg/ml",0/1
same,tumors that had ≧50% survival / tumors tested,"[1]; Uterus, 2nd '1 Hour Exposure' group, c4-c7 = 0.5, 5.0, 10, 50 μg/ml",0/3 and 2/3
same,"tumors that had ≧50% survival / tumors tested, total line","[1]; 1 Hour Exposure, c1-c3 = 0.5, 5.0, 50 μg/ml",0/11 and 2/11
same,"tumors that had ≧50% survival / tumors tested, total line","[1]; 2nd '1 Hour Exposure' group, c4-c7 = 0.5, 5.0, 10, 50 μg/ml",0/4 and 6/44 and 0/3 and 27/41
same,cell growth,"SK-MES cells (lung); all concentrations, past day 1",slowed done
same,percent of apoptosis,"SK-MES cells (lung); days 1-4 microscopic TdT assay, days 3 and 4 flow cytometry",concentration-response effect
same,activity,influenza [2],no activity
same,% weight change (wt),"[3]; A549 (lung), 500 mg/kg",+10%
same,toxic deaths/number of test subjects (deaths),"[3]; A549 (lung), 500 mg/kg",0/10
same,tumor growth suppression (tg supp.),"[3]; A549 (lung), 500 mg/kg",57%
same,toxic deaths/number of test subjects (deaths),"[3]; A549 (lung), 2500 mg/kg",10/10
same,% weight change (wt),[3]; [5],−5%
same,toxic deaths/number of test subjects (deaths),[3]; [5],0/10
same,tumor growth suppression (tg supp.),[3]; [5],52%
same,% weight change (wt),[3]; [6],−8%
same,toxic deaths/number of test subjects (deaths),[3]; [6],1/10
same,tumor growth suppression (tg supp.),[3]; [6],48%
same,% weight change (wt),[3]; [7],−6%
same,toxic deaths/number of test subjects (deaths),[3]; [7],1/10
same,tumor growth suppression (tg supp.),[3]; [7],33%
same,% weight change (wt),[3]; [8],+3%
same,toxic deaths/number of test subjects (deaths),[3]; [8],0/10
same,tumor growth suppression (tg supp.),[3]; [8],36%
same,% weight change (wt),[3]; [9],−6%
same,toxic deaths/number of test subjects (deaths),[3]; [9],2/10
same,tumor growth suppression (tg supp.),[3]; [9],65%
same,% weight change (wt),[3]; [10],−12%
same,toxic deaths/number of test subjects (deaths),[3]; [10],3/10
same,tumor growth suppression (tg supp.),[3]; [10],78%
same,% weight change (wt),[3]; [11],−8%
same,toxic deaths/number of test subjects (deaths),[3]; [11],2/10
same,tumor growth suppression (tg supp.),[3]; [11],79%
same,% weight change (wt),[3]; [12],−25%
same,toxic deaths/number of test subjects (deaths),[3]; [12],9/10
same,tumor growth suppression (tg supp.),[3]; [12],97%
same,% weight change (wt),[3]; [13],−7%
same,toxic deaths/number of test subjects (deaths),[3]; [13],5/10
same,tumor growth suppression (tg supp.),[3]; [13],94%
same,% weight change (wt),[3]; [14],−8%
same,toxic deaths/number of test subjects (deaths),[3]; [14],7/10
same,tumor growth suppression (tg supp.),[3]; [14],100%
same,toxic deaths/number of test subjects (deaths),"[3]; MCF-7L (breast), 6000 mg/kg twice weekly",10/10
same,% weight change (wt),[3]; [15],−1%
same,toxic deaths/number of test subjects (deaths),[3]; [15],0/10
same,tumor growth suppression (tg supp.),[3]; [15],48%
same,% weight change (wt),[3]; [16],−4%
same,toxic deaths/number of test subjects (deaths),[3]; [16],1/10
same,tumor growth suppression (tg supp.),[3]; [16],63%
same,% weight change (wt),[3]; [17],−4%
same,toxic deaths/number of test subjects (deaths),[3]; [17],1/9
same,tumor growth suppression (tg supp.),[3]; [17],70%
same,% weight change (wt),[3]; [18],+3%
same,toxic deaths/number of test subjects (deaths),[3]; [18],2/10
same,tumor growth suppression (tg supp.),[3]; [18],45%
same,% weight change (wt),[3]; [19],+2%
same,toxic deaths/number of test subjects (deaths),[3]; [19],1/10
same,tumor growth suppression (tg supp.),[3]; [19],44%
same,% weight change (wt),[3]; [20],−2%
same,toxic deaths/number of test subjects (deaths),[3]; [20],3/10
same,tumor growth suppression (tg supp.),[3]; [20],69%
same,toxicity,Rhabdomysarcoma,no toxicity
same,activity,influenza [4],not active
same,Tumor Growth Decrease (%),lung,57%
same,tumor weight,Prostate cancer model; 4000 mg/kg p.o. twice a week,330.5 mg and 347.9 mg and 346.6 mg and 421.1 mg and 464.9 mg and 517 mg
same,tumor weight,Prostate cancer model; 6000 mg/kg p.o. twice a week,331.5 mg and 371.7 mg and 421.7 mg and 517.2 mg and 529.9 mg and 595.2 mg
same,LD50,Oral LD50,11000 mg/kg

# Source: patent US6362207B1, “Methods of treating viral infections with benzimidazoles” (priority 1995, dated 2002)
